Assay results taken from US9266835B2, “Quinoline derivatives useful as CB-1 inverse agonists” (JANSSEN PHARMACEUTICA NV, priority 2014, dated 2016).
Where two headings read alike, the source gives them in different places.

What was measured:
[1] = Chronic DIO Mouse, second study (food intake, body weight, insulin tolerance test, glucose tolerance test, plasma insulin, fed blood glucose); format: in vivo; conditions: DIO mice
Protocol: (§1) Male 14-20-week old diet-induced obese mice were ordered from Taconic. Mice were started on a 60% fat diet (D12492, Research Diets, New Brunswick, N.J.) at 6 weeks of age. Mice were single-housed.
(§2) Test compounds were formulated in 10% PEG400 and 10% solutol. Test compounds were administered by oral gavage (5 ml kg^−1).
(§3) The test compound was formulated in 10% PEG400 and 10% solutol. DIO mice received vehicle, test compound (@ 1, 3 and 10 mg/kg) daily for 26 days. At the end of the experiment, the mice were euthanized and blood and tissues were collected.
Body weight and food weight (food intake) were monitored daily for days 1-5 and twice weekly thereafter. Fed blood glucose was measured weekly.
An insulin tolerance test (0.5 U/kg Humulin, ip) was performed on day 19 after a 4 hour food removal. Blood glucose was measured at 0, 15, 30, 60 and 120 minutes after insulin. […] Blood glucose was measured at 0, 30, 60 and 120 minutes after glucose challenge.
Blood glucose was measured from the tail vein with a Lifescan glucometer. Plasma insulin was measured with an ELISA or HTRF kit (Cisbio). Plasma parameters were measured with an Olympus clinical chemistry analyzer.
In a second study, Compound #44 was tested according to the procedure as described above, with results as listed in Tables BIO-5A through 5G, below.

[2] = Chronic DIO Mouse, first study: plasma and brain concentrations; format: in vivo; conditions: male, DIO mice, 2 Hours Post Dose, Day 16, (Std Dev)
Protocol: as §1, §2, §3
Compound #44 was tested according to the procedure as described above, with results as listed in Table BIO-4A through Table BIO4-G, below.

O=c1cc(NC2CCN(S(=O)(=O)C(F)(F)F)CC2)c2cc(C(c3ccc(Cl)cc3)c3ccc(Cl)cc3)ccc2[nH]1 [Compound #44, 6-(bis(4-chlorophenyl)methyl)-4-(1-(trifluoromethylsulfonyl)piperidin-4-ylamino)quinolin-2(1H)-one]
Mean Body Weight ([1]; 1 mg/kg, Day 10): 40.73 Grams | Mean Daily Food Intake ([1]; 1 mg/kg, Day 10): 2.67 Grams | Mean Body Weight ([1]; 1 mg/kg, Day 11): 40.74 Grams | Mean Daily Food Intake ([1]; 1 mg/kg, Day 11): 2.57 Grams | Fed Blood Glucose (Std Err) ([1]; 1 mg/kg, Day 18): 151.20 (6.14) mg/dL | Insulin Tolerance Test, Blood Glucose AUC ([1]; 3 mg/kg): 19435.83 mg·min/dL | Intraperitoneal Glucose Tolerance Test Blood Glucose AUC ([1]; 3 mg/kg): 20854.50 mg·min/dL | Plasma Insulin (Std Err) ([1]; 3 mg/kg): 1.74 (0.14) ng/mL | Intraperitoneal Glucose Tolerance Test Mean Blood Glucose ([1]; 3 mg/kg, 0 min after glucose): 141.30 mg/dL | Insulin Tolerance Test, Mean Blood Glucose ([1]; 3 mg/kg, 0 min after insulin): 161.10 mg/dL | Insulin Tolerance Test, Mean Blood Glucose ([1]; 3 mg/kg, 15 min after insulin): 179.67 mg/dL | Intraperitoneal Glucose Tolerance Test Mean Blood Glucose ([1]; 3 mg/kg, 30 min after glucose): 224.30 mg/dL | Insulin Tolerance Test, Mean Blood Glucose ([1]; 3 mg/kg, 30 min after insulin): 156.33 mg/dL | Intraperitoneal Glucose Tolerance Test Mean Blood Glucose ([1]; 3 mg/kg, 60 min after glucose): 174.20 mg/dL | Insulin Tolerance Test, Mean Blood Glucose ([1]; 3 mg/kg, 60 min after insulin): 167.22 mg/dL | Intraperitoneal Glucose Tolerance Test Mean Blood Glucose ([1]; 3 mg/kg, 120 min after glucose): 138.90 mg/dL | Insulin Tolerance Test, Mean Blood Glucose ([1]; 3 mg/kg, 120 min after insulin): 159.78 mg/dL | Fed Blood Glucose (Std Err) ([1]; 3 mg/kg, Day 0): 161.8 (6.57) mg/dL | Mean Body Weight ([1]; 3 mg/kg, Day 1): 40.54 Grams | Mean Body Weight ([1]; 3 mg/kg, Day 2): 40.47 Grams | Mean Daily Food Intake ([1]; 3 mg/kg, Day 2): 2.50 Grams | Mean Body Weight ([1]; 3 mg/kg, Day 3): 40.24 Grams | Mean Daily Food Intake ([1]; 3 mg/kg, Day 3): 2.41 Grams | Mean Body Weight ([1]; 3 mg/kg, Day 4): 39.39 Grams | Mean Daily Food Intake ([1]; 3 mg/kg, Day 4): 2.02 Grams | Mean Body Weight ([1]; 3 mg/kg, Day 5): 39.11 Grams | Mean Daily Food Intake ([1]; 3 mg/kg, Day 5): 2.02 Grams | Mean Body Weight ([1]; 3 mg/kg, Day 8): 38.59 Grams | Mean Daily Food Intake ([1]; 3 mg/kg, Day 8): 2.13 Grams | Mean Body Weight ([1]; 3 mg/kg, Day 10): 38.48 Grams | Mean Daily Food Intake ([1]; 3 mg/kg, Day 10): 2.57 Grams | Mean Body Weight ([1]; 3 mg/kg, Day 11): 38.13 Grams | Mean Daily Food Intake ([1]; 3 mg/kg, Day 11): 2.29 Grams | Fed Blood Glucose (Std Err) ([1]; 3 mg/kg, Day 18): 142.60 (4.44) mg/dL | Insulin Tolerance Test, Blood Glucose AUC ([1]; 10 mg/kg): 16134.75 mg·min/dL | Intraperitoneal Glucose Tolerance Test Blood Glucose AUC ([1]; 10 mg/kg): 20820.00 mg·min/dL | Plasma Insulin (Std Err) ([1]; 10 mg/kg): 1.64 (0.32) ng/mL | Intraperitoneal Glucose Tolerance Test Mean Blood Glucose ([1]; 10 mg/kg, 0 min after glucose): 149.00 mg/dL | Insulin Tolerance Test, Mean Blood Glucose ([1]; 10 mg/kg, 0 min after insulin): 161.10 mg/dL | Insulin Tolerance Test, Mean Blood Glucose ([1]; 10 mg/kg, 15 min after insulin): 143.90 mg/dL | Intraperitoneal Glucose Tolerance Test Mean Blood Glucose ([1]; 10 mg/kg, 30 min after glucose): 218.50 mg/dL | Insulin Tolerance Test, Mean Blood Glucose ([1]; 10 mg/kg, 30 min after insulin): 133.60 mg/dL | Intraperitoneal Glucose Tolerance Test Mean Blood Glucose ([1]; 10 mg/kg, 60 min after glucose): 169.60 mg/dL | Insulin Tolerance Test, Mean Blood Glucose ([1]; 10 mg/kg, 60 min after insulin): 126.20 mg/dL | Intraperitoneal Glucose Tolerance Test Mean Blood Glucose ([1]; 10 mg/kg, 120 min after glucose): 146.60 mg/dL | Insulin Tolerance Test, Mean Blood Glucose ([1]; 10 mg/kg, 120 min after insulin): 136.10 mg/dL | Fed Blood Glucose (Std Err) ([1]; 10 mg/kg, Day 0): 167.9 (4.63) mg/dL | Mean Body Weight ([1]; 10 mg/kg, Day 1): 40.51 Grams | Mean Body Weight ([1]; 10 mg/kg, Day 2): 39.87 Grams | Mean Daily Food Intake ([1]; 10 mg/kg, Day 2): 2.07 Grams | Mean Body Weight ([1]; 10 mg/kg, Day 3): 39.16 Grams | Mean Daily Food Intake ([1]; 10 mg/kg, Day 3): 1.63 Grams | Mean Body Weight ([1]; 10 mg/kg, Day 4): 38.04 Grams | Mean Daily Food Intake ([1]; 10 mg/kg, Day 4): 1.48 Grams | Mean Body Weight ([1]; 10 mg/kg, Day 5): 37.5 Grams | Mean Daily Food Intake ([1]; 10 mg/kg, Day 5): 1.38 Grams | Mean Body Weight ([1]; 10 mg/kg, Day 8): 35.69 Grams | Mean Daily Food Intake ([1]; 10 mg/kg, Day 8): 1.64 Grams | Mean Body Weight ([1]; 10 mg/kg, Day 10): 35.08 Grams | Mean Daily Food Intake ([1]; 10 mg/kg, Day 10): 2.08 Grams | Mean Body Weight ([1]; 10 mg/kg, Day 11): 34.63 Grams | Mean Daily Food Intake ([1]; 10 mg/kg, Day 11): 2.12 Grams | Fed Blood Glucose (Std Err) ([1]; 10 mg/kg, Day 18): 144.30 (6.47) mg/dL | concentration at 2 h ([2]; brain, 1 mg/kg daily oral, read-out: Brain concentration): 59.4 ng/g | concentration at 2 h ([2]; brain, 3 mg/kg daily oral, read-out: Brain concentration): 114 ng/g | concentration at 2 h ([2]; brain, 10 mg/kg daily oral, read-out: Brain concentration): 244 ng/g | concentration at 2 h ([2]; plasma, 1 mg/kg daily oral, read-out: Plasma concentration): 31 ng/mL | concentration at 2 h ([2]; plasma, 3 mg/kg daily oral, read-out: Plasma concentration): 1510 ng/mL | concentration at 2 h ([2]; plasma, 10 mg/kg daily oral, read-out: Plasma concentration): 4440 ng/mL
